Earlier results as cited in patent US11167013B2, “Sucrose acetate isobutyrate-based compositions, methods and uses thereof” (ASSOCIATION FOR THE ADVANCEMENT OF TISSUE ENGINEERING CELL …, priority 2017, dated 2021).

How the values were obtained:
[1] = as food additive
[2] = neat SAIB

allowable daily intake [1]: 20 mg·kg/day
viscosity [2]: over 100 Pa·s
Substance: Sucrose acetate isobutyrate [SAIB]
